Data reported in patent publication US9956208B2, “Compounds for the treatment of cancer and inflammatory diseases” (C2 Pharmaceuticals, LLC, priority 2013, dated 2018).

Target: human BTK (Homo sapiens (Human), UniProt Q06187)
Assay: BTK activity, Invitrogen SelectScreen Biochemical Kinase Profiling Service, Z'-LYTE Screening Protocol
Conditions: Z'-LYTE assay, ATP concentration at Km
Description: BTK activity was determined using Invitrogen's SelectScreen® Biochemical Kinase Profiling Service using the Z′-LYTE Screening Protocol and Assay Conditions (ATP concentration at Km).

human BTK, sequence (Q06187 whole entry): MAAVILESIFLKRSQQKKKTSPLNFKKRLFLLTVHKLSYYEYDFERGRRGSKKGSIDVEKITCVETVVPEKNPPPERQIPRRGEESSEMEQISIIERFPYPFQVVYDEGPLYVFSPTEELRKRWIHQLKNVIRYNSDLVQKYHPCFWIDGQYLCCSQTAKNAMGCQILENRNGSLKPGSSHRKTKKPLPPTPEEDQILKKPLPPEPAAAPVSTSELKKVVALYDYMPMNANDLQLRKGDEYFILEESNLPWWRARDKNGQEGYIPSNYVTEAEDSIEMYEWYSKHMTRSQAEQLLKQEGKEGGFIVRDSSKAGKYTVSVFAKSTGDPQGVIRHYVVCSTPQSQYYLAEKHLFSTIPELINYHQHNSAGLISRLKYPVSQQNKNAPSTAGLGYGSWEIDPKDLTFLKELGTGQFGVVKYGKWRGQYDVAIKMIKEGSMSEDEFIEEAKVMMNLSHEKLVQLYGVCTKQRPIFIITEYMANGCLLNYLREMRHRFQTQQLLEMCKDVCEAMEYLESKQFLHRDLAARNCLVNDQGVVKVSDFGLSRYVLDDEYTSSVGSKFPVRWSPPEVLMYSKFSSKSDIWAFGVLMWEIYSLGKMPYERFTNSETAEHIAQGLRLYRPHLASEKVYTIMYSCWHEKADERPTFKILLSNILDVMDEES

| SMILES | IC50 [nM] |
| --- | --- |
| Cc1ccc(O)cc1-n1nc2c3c([nH]c(=O)c2c1N)COc1c(NC(=O)/C=C/CN(C)C)cccc1-3 [Example 2, (2E)-N-[14-amino-15-(5-hydroxy-2-methylphenyl)-12-oxo-8-oxa-11,15,16-triazatetracyclo[8.7.0.0^2,7.0^13,17]heptadeca-1(10),2(7),3,5,13,16-hexaen-6-yl]-4-(dimethylamino)but-2-enamide] | < 10 |
| C=CC(=O)Nc1cccc2c1OCc1[nH]c(=O)c3c(N)n(-c4ccccc4F)nc3c1-2 [Example 4, N-[14-amino-15-(2-fluorophenyl)-12-oxo-8-oxa-11,15,16-triazatetracyclo[8.7.0.0^2,7.0^13,17]heptadeca-1(10),2(7),3,5,13,16-hexaen-6-yl]prop-2-enamide] | 10 to 100 |
| CN(C)C/C=C/C(=O)Nc1cccc2c1OCc1[nH]c(=O)c3c(N)n(-c4ccc(Oc5ccccc5)cc4)nc3c1-2 [Example 3, (2E)-N-[14-amino-12-oxo-15-(4-phenoxyphenyl)-8-oxa-11,15,16-triazatetracyclo[8.7.0.0^2,7.0^13,17]heptadeca-1(10),2(7),3,5,13,16-hexaen-6-yl]-4-(dimethylamino)but-2-enamide] | < 10 |
| C=CC(=O)Nc1cccc2c1OCc1[nH]c(=O)c3c(N)n(-c4cc(O)ccc4C)nc3c1-2 [Example 1, N-[14-amino-15-(5-hydroxy-2-methylphenyl)-12-oxo-8-oxa-11,15,16-triazatetracyclo[8.7.0.0^2,7.0^13,17]heptadeca-1(10),2(7),3,5,13,16-hexaen-6-yl]prop-2-enamide] | < 10 |
